Experimental data taken from publication PMC11855827, “High-Throughput Screening of Five Compound Libraries for Anthelmintic Activity and Toxicity Leads to the Discovery of Two Flavonoid Compounds” (International Journal of Molecular Sciences, 2025).
Several values for one entry are separate records, joined by “and”; a condition that tells them apart may be missing. Identical values can stand only once. Like-named read-outs stand apart in the source and are kept apart here.

Test system: C. elegans
[1] = Table S2, C. elegans SS assay, 110 μM, 0 h, averages of 4 data points
[2] = Table S2, C. elegans SS assay, 110 μM, 24 h, averages of 4 data points

Compound	Percentage of motility inhibition 0 h [1]	Percentage of motility inhibition 24 h [2]	also measured
O=C(O)c1cnc(O)cn1 [5‐hydroxypyr azine‐2‐carboxylic acid]	28%	1%	
C=C1C[C@@]2(O)O[C@@]3(C[C@H]2C(C)C)[C@@H](C)CC[C@@H]13 [Curcumol]	8%	12%	
O=C(N[C@@H](c1ccccc1)[C@@H](O)C(=O)O)c1ccccc1 [N‐Benzoyl‐(2R,3S)‐3‐phenylisoserine]	54%	29%	
CC1(C)S[C@@H]2[C@H](NC(=O)[C@H](NC(=O)N3CCNC3=O)c3ccccc3)C(=O)N2[C@H]1C(=O)[O-].[Na+] [Azlocillin (sodium salt)]	31%	0%	
CO/N=C(\C(=O)N[C@@H]1C(=O)N2C(C(=O)[O-])=C(C[n+]3ccn4ncccc43)CS[C@H]12)c1nsc(N)n1.Cl [Cefozopran (hydrochloride)]	10%	12%	
Cn1c(=O)c2c(c3ccccc31)OC(C)(C)C=C2 [N‐Methylflindersine]	0%	1%	
COc1ccc(CC2c3cc(OC)c(OC)cc3CCN2C)cc1OC (stereo not drawn) [DL‐Laudanosine]	7%	12%	
C[C@H](CC[C@@H](O[C@@H]1O[C@H](CO[C@@H]2O[C@H](CO)[C@@H](O)[C@H](O)[C@H]2O)[C@@H](O)[C@H](O)[C@H]1O[C@@H]1O[C@H](CO)[C@@H](O)[C@H](O)[C@H]1O)C(C)(C)O)[C@H]1CC[C@@]2(C)[C@@H]3CC=C4[C@@H](CC[C@H](O[C@@H]5O[C@H](CO)[C@@H](O[C@@H]6O[C@H](CO)[C@@H](O)[C@H](O)[C@H]6O)[C@H](O)[C@H]5O)C4(C)C)[C@]3(C)[C@H](O)C[C@]12C [Isomogroside V]	28%	21%	
CC(C)=C[C@H]1C[C@](C)(O)[C@@H]2[C@H]3CC[C@@H]4[C@@]5(C)CC[C@H](O[C@@H]6OC[C@H](O)[C@H](O[C@@H]7O[C@H](CO)[C@@H](O)[C@H](O)[C@H]7O[C@@H]7OC[C@@H](O)[C@H](O)[C@H]7O)[C@H]6O[C@@H]6O[C@@H](C)[C@H](O)[C@@H](O)[C@H]6O)C(C)(C)[C@@H]5CC[C@@]4(C)[C@@]34CO[C@@]2(C4)O1 [Jujuboside B]	0%	0%	
Oc1cccnc1 [3‐Hydroxypyr idine]	18%	19%	
CCNCc1nc2c(N)nc3ccccc3c2n1CC(C)(C)O.O=C(O)C(F)(F)F [Gardiquimod trifluoroacetate]	33%	0%	
CC(C)OC(=O)[C@H](C)N[P@](=O)(CO[C@H](C)Cn1cnc2c(N)ncnc21)Oc1ccccc1.CC(C)OC(=O)[C@H](C)N[P@](=O)(CO[C@H](C)Cn1cnc2c(N)ncnc21)Oc1ccccc1.O=C(O)/C=C/C(=O)O [GS‐7340 (hemifumarate)]	21%	0%	
C=C[C@H]1CN2CC[C@H]1C[C@@H]2[C@@H](O)c1ccnc2ccc(OC)cc12.Cl.O [Quinidine hydrochloride monohydrate]	40%	6%	
O=C1N[C@@H]2C(=C[C@H](O)[C@@H](O)[C@H]2O)c2cc3c(c(O)c21)OCO3 [Narciclasine]	32%	14%	
CC1(C)CCC[C@]2(C)[C@H]3CCO[C@]3(C)CC[C@@H]12 [Ambroxide]	8%	14%	
COC(=O)C1=COC2OC3CC1C2C(C)O3 (stereo not drawn) [Sarracenin]	11%	27%	
C[C@@H]1CCO[C@H]2Cn3cc(C(=O)NCc4ccc(F)cc4F)c(=O)c([O-])c3C(=O)N12.[Na+] [Dolutegravir (sodium)]	0%	17%	
CC(C)NCC(O)COc1cccc2ccccc12.Cl (stereo not drawn) [Propranolol (hydrochloride)]		51% and 35%	
c1ccc2c(-c3nccs3)c[nH]c2c1 [Camalexin]	50%	27%	
COc1ccc([C@@H]2CC(=O)c3c(O)cc(O[C@@H]4O[C@H](CO)[C@@H](O)[C@H](O)[C@H]4O)cc3O2)cc1O [Hesperetin 7‐O‐glucoside]	16%	14%	

Compound	Percentage of motility inhibition 0 h [1]	Percentage of motility inhibition 24 h [2]	also measured
CC[C@]1(O)C[C@@H]2CN(CCc3c([nH]c4ccccc34)[C@@](C(=O)OC)(c3cc4c(cc3OC)N(C)[C@H]3[C@@](O)(C(=O)OC)[C@H](OC(C)=O)[C@]5(CC)C=CCN6CC[C@]43[C@@H]65)C2)C1.O=S(=O)(O)O [Vinblastine (sulfate)]	0% and 8%	0% and 1%	
O=c1cc(-c2ccc(O)c(O)c2)oc2cc(O[C@@H]3O[C@H](CO)[C@@H](O)[C@H](O)[C@H]3O)c(O)c(O)c12 [6‐Hydroxyluteolin 7‐glucoside]	0%	10%	
C[C@H](CC[C@@H](O[C@@H]1O[C@H](CO[C@@H]2O[C@H](CO)[C@@H](O)[C@H](O)[C@H]2O)[C@@H](O)[C@H](O)[C@H]1O[C@@H]1O[C@H](CO)[C@@H](O)[C@H](O)[C@H]1O)C(C)(C)O)[C@H]1CC[C@@]2(C)[C@@H]3CC=C4[C@@H](CC[C@H](O[C@@H]5O[C@H](CO)[C@@H](O)[C@H](O)[C@H]5O)C4(C)C)[C@]3(C)[C@H](O)C[C@]12C [Siamenoside I]	16%	10%	
C[C@@H]1O[C@@H](OC[C@H]2O[C@@H](Oc3c(-c4ccc(O)cc4)oc4cc(O)cc(O)c4c3=O)[C@H](O)[C@@H](O)[C@@H]2O)[C@H](O)[C@H](O)[C@H]1O [Nicotiflorin]	4%	40%	
CC1(C)CC[C@]2(C(=O)O)CC[C@]3(C)C(=CC[C@@H]4[C@@]5(C)C[C@H](O)[C@H](O)[C@@](C)(CO)[C@@H]5CC[C@]43C)[C@@H]2C1 [Bayogenin]	2%	5%	
Avermectin B1 [reference compound]		41%	Inhibition (%) 110 μM (0 h): 81 ± 1%; Inhibition (%) 110 μM (24 h): 42 ± 1%
NC[C@@H]1O[C@H](O[C@H]2[C@@H](O)[C@H](O[C@@H]3[C@@H](O)[C@H](N)C[C@H](N)[C@H]3O[C@H]3O[C@H](CN)[C@@H](O)[C@H](O)[C@H]3N)O[C@@H]2CO)[C@H](N)[C@@H](O)[C@@H]1O.O=S(=O)(O)O [Neomycin (sulfate)]	21%	3%	
Cl.NCC(O)c1ccc(O)c(O)c1 (stereo not drawn) [Norepinephrine (hydrochloride)]	23% and 12%		
COc1cc2c(cc1OC)[C@@H]1Cc3ccc(OC)c(OC)c3CN1CC2 [Rotun dine]			Percentage of motility inhibition 0 h (0 h, 110 μM): 0%; Percentage of motility inhibition 24 h (24 h, 110 µM): 4%
COc1ccc(-c2oc3c4c(cc(O)c3c(=O)c2O)OC(C)(C)CC4)cc1 [β‐Anhydroicaritin]	5%	16%	
COC(=O)N[C@H](C(=O)N1CC2(CC2)C[C@H]1c1ncc(-c2ccc3c(c2)C(F)(F)c2cc(-c4ccc5nc([C@@H]6[C@H]7CC[C@H](C7)N6C(=O)[C@@H](NC(=O)OC)C(C)C)[nH]c5c4)ccc2-3)[nH]1)C(C)C.O=C(O)C(O)C(O)C(=O)O [Ledipasvir (D‐tartrate)]	34%	13%	
C=C(C)[C@@H]1CC[C@]2(C)CC[C@]3(C)[C@H](CC[C@@H]4[C@@]5(C)CC[C@H](OC(C)=O)C(C)(C)[C@@H]5CC[C@]43C)[C@@H]12 [Lupeol acetate]	0%	0%	
C[C@@H]1O[C@@H](O[C@H]2[C@H](OC(=O)[C@]34CCC(C)(C)C[C@H]3C3=CC[C@@H]5[C@@]6(C)C[C@H](O)[C@H](O[C@@H]7O[C@H](CO)[C@@H](O)[C@H](O)[C@H]7O)[C@@](C)(CO)[C@@H]6CC[C@@]5(C)[C@]3(C)CC4)O[C@H](CO)[C@@H](O)[C@@H]2O)[C@H](O)[C@H](O)[C@H]1O[C@@H]1OC[C@@H](O)[C@H](O)[C@H]1O [Polygalasaponin F]	5%	0%	
O=C1C[C@@H](c2ccc(O)cc2)Oc2cc(O)ccc21 [Liquiriti genin]	44%	28%	
(‐)‐Epigalloca techin	3%	0%	
CC(=O)O[C@H]1C(=O)[C@@]2(C)[C@H]([C@H](OC(=O)c3ccccc3)[C@]3(O)C[C@H](OC(=O)[C@H](O)[C@@H](NC(=O)c4ccccc4)c4ccccc4)C(C)=C1C3(C)C)[C@]1(OC(C)=O)CO[C@@H]1C[C@@H]2O [Paclitaxel]	18% and 29%	12% and 23%	
NCC[C@H](O)C(=O)N[C@@H]1C[C@H](N)[C@@H](O[C@H]2O[C@H](CN)[C@@H](O)[C@H](O)[C@H]2O)[C@H](O)[C@H]1O[C@H]1O[C@H](CO)[C@@H](O)[C@H](N)[C@H]1O.O=S(=O)(O)O.O=S(=O)(O)O [Amikacin (sulfate)]	0%	3%	
O=c1c(O[C@@H]2O[C@H](CO)[C@@H](O)[C@H](O)[C@H]2O)c(-c2ccc(O)c(O)c2)oc2cc(O[C@@H]3O[C@H](CO[C@@H]4O[C@H](CO)[C@@H](O)[C@H](O)[C@H]4O)[C@@H](O)[C@H](O)[C@H]3O)cc(O)c12			Percentage of motility inhibition 0 h (110 µM): 0%; Percentage of motility inhibition 24 h (110 µM): 0%
CN1CCCN=C1/C=C/c1cccs1.O=C(O)C(O)C(O)C(=O)O [Pyrantel tartrate, reference compound]	85%	61%	Inhibition (%) 110 μM (24 h) (C. elegans L4 motility, 110 μM, 24 h, mean ± SD of four experiments): 26 ± 1%
